Target: Beta-secretase 1 (Homo sapiens, UniProt P56817)
Experiment: Fluorescence Quench Assay: The inhibitory activity of compounds was assessed by a fluorescence quench assay of BACE1 activity using commercially available substrate HiLyte Fluor 488-[…](QXLT 520)-OH (SEQ ID NO:1) AnaSpec, San Jose, Calif.) and truncated human beta-secretase, BACE1 (amino acids 1-454) fused to a myc-his tag and secreted from HEK293/BACEect. cells into OptiMEM (Invitrogen). The substrate was dissolved at 1 mg/ml in DMSO.The assay was performed in the presence of OptiMEM (supernatant collected over 24 h and cleared from cellular debris by centrifugation) containing the ectodomain of BACE1, 25 ul water containing the desired 2-fold concentration of test compound and 2% DMSO, 1 uM substrate peptide, 20 mM NaOAc, pH 4.4, and 0.04% Triton-X100 in a total assay volume of 50 ul in a 384 well plate. In general, 25 ul of compound dilution were given to the plate followed by the addition of 10 ul of BACE1 containing OptiMEM diluted 1:10 in water.

Sequence of Beta-secretase 1 (P56817 whole entry, the tested form may be a part): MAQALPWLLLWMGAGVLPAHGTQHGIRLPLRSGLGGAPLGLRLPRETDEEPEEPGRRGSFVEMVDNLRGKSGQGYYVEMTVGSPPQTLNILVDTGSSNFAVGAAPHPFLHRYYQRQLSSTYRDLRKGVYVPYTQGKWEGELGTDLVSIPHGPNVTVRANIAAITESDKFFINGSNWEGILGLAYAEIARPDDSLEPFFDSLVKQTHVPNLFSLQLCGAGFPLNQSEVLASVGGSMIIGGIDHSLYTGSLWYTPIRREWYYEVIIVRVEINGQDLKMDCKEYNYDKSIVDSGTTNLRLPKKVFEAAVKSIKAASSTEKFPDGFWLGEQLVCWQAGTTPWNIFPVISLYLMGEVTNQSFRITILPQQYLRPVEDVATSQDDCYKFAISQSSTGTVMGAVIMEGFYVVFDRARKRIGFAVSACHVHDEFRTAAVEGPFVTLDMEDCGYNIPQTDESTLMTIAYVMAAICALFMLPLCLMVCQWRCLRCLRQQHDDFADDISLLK

Compound: CO[C@H]1CC[C@@]2(Cc3ccc(C#N)cc3[C@]23N=C(N)N(Cc2ncccn2)C3=O)C[C@@H]1C
- IC50: 11 nM

Reference: ChEMBL document CHEMBL3638781, “Inhibitors of Œ=-secretase” (2015)
